This passage reports level, % of control, IC50 and viability results from ChEMBL document CHEMBL6153034, “Synthesis of dolutegravir derivatives modified by 1,2,3-triazole structure and their anti-inflammatory activity in LPS-induced BV2 cells” (Bioorg Med Chem Lett, 2025).

Each structure is given as a SMILES string. pIC50: −log10 of the molar value.

Series [1] deals with BV-2. Kind of series: Antiinflammatory activity in LPS induced mouse BV-2 cells assessed as NO production at 10 uM by Griess reagent based assay relative to control. In general terms: Griess reagent forms a coloured azo dye with nitrite.
Series [2] has as its system BV-2. Kind of series: Antiinflammatory activity in LPS induced mouse BV-2 cells assessed as NO production at 1 uM by Griess reagent based assay relative to control.
The subject of series [3] is BV-2. Description: Antiinflammatory activity in LPS induced mouse BV-2 cells assessed as inhibition of NO production by Griess reagent based assay. Type of series: functional, cell-based.
Series [4] can be described thus: Cytotoxicity against mouse BV-2 cells assessed as cell viability at 1 uM by MTT assay relative to control. Type of series: toxicity, cell-based. The note with it: read-out: Activity. For orientation: Formazan colour is commonly taken as a measure of viable cells.
The nature of series [5]: Cytotoxicity against mouse BV-2 cells assessed as cell viability at 10 uM by MTT assay relative to control. Type of series: toxicity, cell-based. The settings on record: read-out: Activity.

With `COc1ccccc1-n1cc(-c2cccc(NC(=O)c3cn4c(c(OC)c3=O)C(=O)N3[C@H](C)CCO[C@H]3C4)c2)nn1`, the level, % of control at 10 µM in the series on BV-2 [1] is 48.6%. The level, % of control at 1 µM in the series on BV-2 [2] turned out to be 76%. In addition, in the series with BV-2 [3], the negative logarithm of the IC50 (pIC50) is 4.96. The viability at 1 µM in series [4] was 109%. Also, the viability at 10 µM in series [5] was determined as 76.8%.

In the case of `COc1c2n(cc(C(=O)Nc3ccccc3-c3cn(-c4c(C)cc(C)cc4C)nn3)c1=O)C[C@@H]1OCC[C@@H](C)N1C2=O`, the level, % of control at 10 µM in the series on BV-2 [1] turned out to be 59.1%. Also, the level, % of control at 1 µM with BV-2 [2] came to 81.4%. Further, the viability at 1 µM in series [4] worked out at 107%. In series [5], the viability at 10 µM was 113%.

Consider `COc1c2n(cc(C(=O)Nc3ccccc3-c3cn(-c4cc(C(F)(F)F)cc(C(F)(F)F)c4)nn3)c1=O)C[C@@H]1OCC[C@@H](C)N1C2=O`, for which the level, % of control at 10 µM in the series with BV-2 [1] amounted to 73%. In addition, in the series with BV-2 [2], the level, % of control at 1 µM is 86.6%. Besides, the viability at 1 µM in series [4] is 104%. In series [5], the viability at 10 µM worked out at 112%.

With `COc1c2n(cc(C(=O)Nc3cccc(-c4cn(-c5ccccc5C(F)(F)F)nn4)c3)c1=O)C[C@@H]1OCC[C@@H](C)N1C2=O`, the level, % of control at 10 µM in the series with BV-2 [1] stood at 3.88%. Further, in the series with BV-2 [2], the level, % of control at 1 µM was found to be 91.5%. The viability at 1 µM in series [4] was determined as 60.6%. Moreover, the viability at 10 µM in series [5] was found to be 22.8%.

As for `CCc1ccccc1-n1cc(-c2cccc(NC(=O)c3cn4c(c(OC)c3=O)C(=O)N3[C@H](C)CCO[C@H]3C4)c2)nn1`, in the series on BV-2 [1], the level, % of control at 10 µM was 59.9%. In addition, the level, % of control at 1 µM in the series with BV-2 [2] was 94.5%. Also, in series [4], the viability at 1 µM is 101%. In series [5], the viability at 10 µM was determined as 49.8%.

Regarding `COc1c2n(cc(C(=O)Nc3ccc(-c4cn(-c5ccc(F)cc5)nn4)cc3)c1=O)C[C@@H]1OCC[C@@H](C)N1C2=O`, in the series with BV-2 [1], the level, % of control at 10 µM amounted to 82.1%. Also, the level, % of control at 1 µM in the series on BV-2 [2] worked out at 91.9%. Further, the viability at 1 µM in series [4] was determined as 103%. In addition, in series [5], the viability at 10 µM stood at 73.3%.

For the compound `COc1c2n(cc(C(=O)Nc3cccc(-c4cn(-c5cc(C(F)(F)F)cc(C(F)(F)F)c5)nn4)c3)c1=O)C[C@H]1OC[C@H](C)N1C2=O`, the level, % of control at 10 µM in the series on BV-2 [1] was found to be 97.9%. Besides, in the series on BV-2 [2], the level, % of control at 1 µM was found to be 114%. Also, the viability at 1 µM in series [4] turned out to be 97.1%. Also, the viability at 10 µM in series [5] was 69.6%.

With `COc1c2n(cc(C(=O)Nc3cccc(-c4cn(-c5ccccc5)nn4)c3)c1=O)C[C@@H]1OCC[C@@H](C)N1C2=O`, in the series on BV-2 [1], the level, % of control at 10 µM turned out to be 77.3%. For the same compound, the level, % of control at 1 µM with BV-2 [2] worked out at 78.6%. Further, the viability at 1 µM in series [4] is 104%. For the same compound, in series [5], the viability at 10 µM was 62.3%.

For `COc1ccccc1-n1cc(-c2ccc(NC(=O)c3cn4c(c(OC)c3=O)C(=O)N3[C@H](C)CCO[C@H]3C4)cc2)nn1`, the level, % of control at 10 µM in the series with BV-2 [1] is 107%. Besides, in the series on BV-2 [2], the level, % of control at 1 µM was determined as 108%. The viability at 1 µM in series [4] was found to be 108%. The viability at 10 µM in series [5] worked out at 81.6%.

Take `COc1c2n(cc(C(=O)Nc3cccc(-c4cn(-c5c(C)cc(C)cc5C)nn4)c3)c1=O)C[C@H]1OC[C@H](C)N1C2=O`: in the series with BV-2 [1], the level, % of control at 10 µM amounted to 89.6%. In the series with BV-2 [2], the level, % of control at 1 µM was determined as 116%. For the same compound, in series [4], the viability at 1 µM stood at 94.6%. In addition, the viability at 10 µM in series [5] worked out at 49.3%.

For `COc1c2n(cc(C(=O)Nc3cccc(-c4cn(-c5ccccc5C(F)(F)F)nn4)c3)c1=O)C[C@H]1OC[C@H](C)N1C2=O`, the level, % of control at 10 µM in the series on BV-2 [1] was 82.3%. Further, the level, % of control at 1 µM in the series with BV-2 [2] is 103%. Further, the viability at 1 µM in series [4] was 97.4%. Moreover, the viability at 10 µM in series [5] was 42.9%.

Consider `CCc1ccccc1-n1cc(-c2ccc(NC(=O)c3cn4c(c(OC)c3=O)C(=O)N3[C@H](C)CCO[C@H]3C4)cc2)nn1`, for which the level, % of control at 10 µM with BV-2 [1] came to 60.2%. Further, the level, % of control at 1 µM in the series with BV-2 [2] is 118%. The viability at 1 µM in series [4] worked out at 110%. The viability at 10 µM in series [5] came to 123%.

With `COc1c2n(cc(C(=O)Nc3cccc(-c4cn(-c5ccc(F)cc5)nn4)c3)c1=O)C[C@H]1OC[C@H](C)N1C2=O`, the level, % of control at 10 µM in the series with BV-2 [1] came out at 120%. Besides, in the series with BV-2 [2], the level, % of control at 1 µM amounted to 129%. Also, the viability at 1 µM in series [4] turned out to be 109%. Also, the viability at 10 µM in series [5] turned out to be 68%.

In the case of `COc1c2n(cc(C(=O)Nc3cccc(-c4cn(-c5ccccc5I)nn4)c3)c1=O)C[C@H]1OC[C@H](C)N1C2=O`, the level, % of control at 10 µM in the series on BV-2 [1] stood at 120%. For the same compound, the level, % of control at 1 µM in the series with BV-2 [2] was 143%. In addition, the viability at 1 µM in series [4] was 99.8%. Moreover, the viability at 10 µM in series [5] was determined as 48.7%.

On to `COc1c2n(cc(C(=O)Nc3cccc(-c4cn(-c5ccc(C(F)(F)F)cc5)nn4)c3)c1=O)C[C@H]1OC[C@H](C)N1C2=O`, for which the level, % of control at 10 µM with BV-2 [1] amounted to 101%. The level, % of control at 1 µM with BV-2 [2] came out at 102%. Also, the viability at 1 µM in series [4] is 108%. Moreover, the viability at 10 µM in series [5] was determined as 63.3%.

For the compound `COc1c2n(cc(C(=O)Nc3ccc(-c4cn(-c5cc(C(F)(F)F)cc(C(F)(F)F)c5)nn4)cc3)c1=O)C[C@@H]1OCC[C@@H](C)N1C2=O`, in the series with BV-2 [1], the level, % of control at 10 µM came to 99.6%. In the series with BV-2 [2], the level, % of control at 1 µM was 105%. Also, in series [4], the viability at 1 µM worked out at 105%. The viability at 10 µM in series [5] stood at 71.1%.

Consider `COc1c2n(cc(C(=O)Nc3ccccc3-c3cn(-c4ccccc4F)nn3)c1=O)C[C@@H]1OCC[C@@H](C)N1C2=O`, for which, in the series with BV-2 [1], the level, % of control at 10 µM was found to be 78.7%. Also, in the series with BV-2 [2], the level, % of control at 1 µM turned out to be 86.8%. Moreover, the viability at 1 µM in series [4] is 100%. For the same compound, in series [5], the viability at 10 µM came to 98.5%.

Consider `COc1c2n(cc(C(=O)Nc3ccc(-c4cn(-c5ccc(C(F)(F)F)cc5)nn4)cc3)c1=O)C[C@@H]1OCC[C@@H](C)N1C2=O`, for which the level, % of control at 10 µM in the series with BV-2 [1] is 76.2%. The level, % of control at 1 µM in the series with BV-2 [2] was 77.9%. Also, the viability at 1 µM in series [4] came out at 53.1%. In addition, in series [5], the viability at 10 µM was found to be 45.2%.

As to `COc1c2n(cc(C(=O)Nc3cccc(-c4cn(-c5ccccc5F)nn4)c3)c1=O)C[C@H]1OC[C@H](C)N1C2=O`, in the series on BV-2 [1], the level, % of control at 10 µM turned out to be 88.7%. Also, the level, % of control at 1 µM in the series with BV-2 [2] worked out at 97.9%. In series [4], the viability at 1 µM was 91.9%. Besides, the viability at 10 µM in series [5] amounted to 63.8%.

With `COc1c2n(cc(C(=O)Nc3ccc(-c4cn(-c5ccccc5I)nn4)cc3)c1=O)C[C@@H]1OCC[C@@H](C)N1C2=O`, the level, % of control at 10 µM in the series on BV-2 [1] amounted to 106%. For the same compound, the level, % of control at 1 µM in the series with BV-2 [2] turned out to be 98.2%. Further, the viability at 1 µM in series [4] came to 110%. Besides, the viability at 10 µM in series [5] was found to be 98.2%.

With `COc1c2n(cc(C(=O)Nc3cccc(-c4cn(-c5ccc(F)cc5)nn4)c3)c1=O)C[C@@H]1OCC[C@@H](C)N1C2=O`, the level, % of control at 10 µM in the series on BV-2 [1] amounted to 77%. Moreover, in the series on BV-2 [2], the level, % of control at 1 µM was found to be 76.6%. Further, the viability at 1 µM in series [4] was 111%. Further, the viability at 10 µM in series [5] was found to be 69.2%.

For the compound `COc1c2n(cc(C(=O)Nc3cccc(-c4cn(-c5cc(C(F)(F)F)ccc5C(F)(F)F)nn4)c3)c1=O)C[C@H]1OC[C@H](C)N1C2=O`, the level, % of control at 10 µM in the series on BV-2 [1] is 109%. Besides, in the series with BV-2 [2], the level, % of control at 1 µM was 118%. Further, the viability at 1 µM in series [4] was determined as 91.9%. Also, the viability at 10 µM in series [5] came out at 71.1%.

Regarding `COc1c2n(cc(C(=O)Nc3ccc(-c4cn(-c5cccc(C(F)(F)F)c5)nn4)cc3)c1=O)C[C@@H]1OCC[C@@H](C)N1C2=O`, in the series on BV-2 [1], the level, % of control at 10 µM is 90.5%. In addition, in the series on BV-2 [2], the level, % of control at 1 µM is 96.8%. Moreover, in series [4], the viability at 1 µM stood at 105%. In series [5], the viability at 10 µM worked out at 73.8%.

Usually pIC50 stands for −log10 of the IC50, conventionally taken in molar units.
